Structures are written as SMILES. ≈ marks a conversion by molar mass, not a printed value. Calls of active or inactive are those of the source. The rule behind the calls is not given here.

Data set [1] can be described thus: Aqueous solubility at pH 1.0. It is filed as physicochemical.
The nature of data set [2]: Oral bioavailability in rat. It is filed as ADME, organism-based. To be noted: in vivo.
The test system of data set [3] is Canis familiaris. Put plainly: Induction of PTH release in Beagle dog assessed as PTH Cmax in blood at 0.3 mg/kg, po by radioimmunoassay. It is filed as functional, Canis lupus familiaris.
In data set [4] the test system is Rattus norvegicus. Put plainly: Induction of PTH release in Wistar rat assessed as PTH Cmax in blood at 30 mg/kg, po by radioimmunoassay. It is filed as functional.
For data set [5], the system named is Rattus norvegicus. The data set is described as follows: Induction of PTH release in Wistar rat assessed as PTH Cmax in blood at 3 mg/kg, po by radioimmunoassay. It is filed as functional.
Data set [6] has as its target T1, Extracellular calcium-sensing receptor (Homo sapiens, UniProt P41180).
T1 sequence (P41180 whole entry): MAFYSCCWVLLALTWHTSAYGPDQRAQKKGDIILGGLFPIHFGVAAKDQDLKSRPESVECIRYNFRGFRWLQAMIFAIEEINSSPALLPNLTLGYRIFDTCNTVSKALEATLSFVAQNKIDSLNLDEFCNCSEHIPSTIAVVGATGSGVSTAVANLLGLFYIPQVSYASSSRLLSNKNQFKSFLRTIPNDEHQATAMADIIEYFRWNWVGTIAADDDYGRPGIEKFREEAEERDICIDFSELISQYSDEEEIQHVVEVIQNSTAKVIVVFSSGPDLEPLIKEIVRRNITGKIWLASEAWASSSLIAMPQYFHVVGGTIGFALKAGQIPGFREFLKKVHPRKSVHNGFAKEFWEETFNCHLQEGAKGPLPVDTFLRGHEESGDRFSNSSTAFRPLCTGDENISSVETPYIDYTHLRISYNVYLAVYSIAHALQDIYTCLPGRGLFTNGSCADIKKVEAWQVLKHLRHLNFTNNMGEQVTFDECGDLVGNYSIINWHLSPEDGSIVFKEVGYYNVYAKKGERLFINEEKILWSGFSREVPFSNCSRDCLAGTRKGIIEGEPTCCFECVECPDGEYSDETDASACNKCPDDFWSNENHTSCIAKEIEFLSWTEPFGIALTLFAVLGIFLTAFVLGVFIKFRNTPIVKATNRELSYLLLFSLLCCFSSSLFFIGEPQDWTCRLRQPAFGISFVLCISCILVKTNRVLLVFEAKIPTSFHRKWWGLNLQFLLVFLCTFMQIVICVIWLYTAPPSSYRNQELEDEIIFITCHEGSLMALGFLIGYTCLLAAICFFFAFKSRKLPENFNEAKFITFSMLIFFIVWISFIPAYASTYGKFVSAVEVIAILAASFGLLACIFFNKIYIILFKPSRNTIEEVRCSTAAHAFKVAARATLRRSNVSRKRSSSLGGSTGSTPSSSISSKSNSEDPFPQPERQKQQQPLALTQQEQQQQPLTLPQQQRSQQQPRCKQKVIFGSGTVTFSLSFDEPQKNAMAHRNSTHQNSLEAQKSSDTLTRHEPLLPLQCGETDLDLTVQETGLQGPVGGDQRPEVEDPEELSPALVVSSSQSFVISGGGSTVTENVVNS
The data set is described as follows: Antagonist activity at human CaSR expressed in CCL39 cells assessed as inhibition of extracellular calcium-induced intracellular calcium transient by FLIPR assay. It is filed as functional, cell-based. On the technique in general: Calcium assays in cells follow changes in intracellular calcium, usually with a dye or a luminescent sensor.

Data set [7] deals with Canis familiaris. The data set is described as follows: Induction of PTH release in Beagle dog at 3 mg/kg, po by radioimmunoassay. It is filed as functional, Canis lupus familiaris.
Data set [8] has as its system Rattus norvegicus. Put plainly: Induction of PTH release in iv dosed Wistar rat by radioimmunoassay. It is filed as functional, organism-based.
Data set [9] is described as follows: Aqueous solubility at pH 6.8. It is filed as physicochemical.

By solubility is commonly meant the concentration that dissolves in the medium under given conditions. Read a high solubility as much dissolved substance. In general, bioavailability refers to dose-corrected exposure relative to a reference, in per cent. Lower therefore signals poor availability. The IC50 is the midpoint of a concentration-inhibition curve. Consider `C#CCOc1ccc2c(c1)c(-c1ccc(C(C)C)cc1)nc(=O)n2C(C)C`, for which the solubility in data set [1] and in data set [9] was 20 µg/mL (≈ 55.5 µM) in each case. The same compound displayed a bioavailability in [2] of 20%. Further, the Activity worked out at 300 pgequiv/ml in the data set with Canis familiaris [3], 150 pgequiv/ml in the data set on Rattus norvegicus [4], 280 pgequiv/ml with Rattus norvegicus [5] and 50 pg·h/mL in the data set on Canis familiaris [7]. Also, the IC50 in [6] was 9 nM. Besides, the result in the data set on Rattus norvegicus [8] was Active.

`C#CCOc1ccc2c(c1)c(-c1ccc(C(C)C)cc1)nc(=O)n2Cc1cccc(NC(=O)CN2CCN(C)CC2)c1`: the solubility in data set [1] was above 200 µg/mL; in data set [9], 20 µg/mL (≈ 35.5 µM). This compound also displayed a bioavailability in [2] of 1%. In addition, the IC50 in data set [6] is 2.4 nM. Besides, the outcome in the data set with Rattus norvegicus [8] was Active.

As for `C#CCOc1ccc2c(c1)c(-c1ccc(C(C)C)cc1)nc(=O)n2Cc1cccc(NC(=O)CN2CCN(CCCN(C)C)CC2)c1`, the solubility in data set [1] was above 200 µg/mL; in data set [9], 100 µg/mL (≈ 158 µM). In addition, the bioavailability in data set [2] was 8%. For the same compound, the IC50 in [6] came to 8.1 nM. Besides, the result in the data set with Rattus norvegicus [8] was Active.

(Values after ChEMBL document CHEMBL1157601, “1-Alkyl-4-phenyl-6-alkoxy-1H-quinazolin-2-ones: a novel series of potent calcium-sensing receptor antagonists” (J Med Chem, 2010).)
